± gives the expanded uncertainty stated by the source.
How the values were obtained:
[1] = molar enthalpy of vaporization or sublimation; settings: 298.15 K, Drop Microcalorimetry
[2] = Molar enthalpy of transition or fusion; settings: DSC
[3] = DTA

molar enthalpy ([1]; Crystal)	Molar enthalpy of transition or fusion ([2]; Crystal)	Normal melting temperature ([3]; Crystal)	molar enthalpy ([1]; Crystal 2)	Molar enthalpy of transition or fusion ([2]; Crystal 1)	Molar enthalpy of transition or fusion ([2]; Crystal 2)	Normal melting temperature ([3]; Crystal 1)	Triple point temperature ([3]; Crystal 2)	Compound
118 ± 3 kJ/mol	33.7 ± 0.83 kJ/mol	206.91 ± 0.39 °C	–	–	–	–	–	O=C1CCCc2c(O)cccc21 [5-hydroxy-1-tetralone]
–	–	–	118 ± 2.8 kJ/mol	19 ± 0.71 kJ/mol	13 ± 2.5 kJ/mol	152.76 ± 0.45 °C	387.46 ± 0.65 K	O=C1CCCc2cc(O)ccc21 [6-hydroxy-1-tetralone]
